Assay results reported in the SangsterLogP compilation.

Test: method code SF-AS, from Mayer, M.; Testa, B.; Van, H.; Bornand-Crausaz, A. (1982). Non-additivity amd intramolecular effects in the partition coefficient of omega-functionalized alkylpyridines. Eur J Med Chem, 17(5)453-459.

| logP | Structure (SMILES) |
| --- | --- |
| 0.06 | OCc1ccccn1 |
| -0.02 | OCc1cccnc1 |
| 0.58 | OCCCc1ccncc1 |
| 0.6 | OCCCc1cccnc1 |
| 0.92 | OCCCCc1cccnc1 |
| 0.42 | NC(=O)CCCCc1ccncc1 |
| 0.86 | NCCCCc1ccncc1 |
| -0.27 | NC(=O)CCc1ccccn1 |
| 0.12 | OCCc1ccccn1 |
| 0.86 | OCCCCc1ccccn1 |
| 1.28 | OCCCCCc1ccccn1 |
| 0.4 | NCCCc1ccncc1 |
| 1.41 | OCCCCCc1cccnc1 |
| 1.33 | OCCCCCc1ccncc1 |
| 1.4 | NCCCCCc1ccncc1 |
| 0.86 | NCCCCc1ccccn1 |
| 0.12 | OCCc1cccnc1 |
| -0.26 | NC(=O)CCc1cccnc1 |
| -0.21 | NCc1ccccn1 |
| 1.32 | NCCCCCc1ccccn1 |
| 0.1 | OCCc1ccncc1 |
| 0.58 | OCCCc1ccccn1 |
| -0.25 | NC(=O)CCc1ccncc1 |
| 0.4 | NC(=O)CCCCc1cccnc1 |
| 0.49 | NCCCc1ccccn1 |
| 1.83 | NCCCc1ccccc1 |
| 0.9 | OCCCCc1ccncc1 |
| -0.38 | NCc1ccncc1 |

| Structure (SMILES) | logP |
| --- | --- |
| NCCCCc1cccnc1 | 0.88 |
| NCCc1ccccn1 | 0.08 |
| NCCCCCc1cccnc1 | 1.41 |
| NCCCc1cccnc1 | 0.44 |
| NCCc1cccnc1 | 0 |
| NCCc1ccncc1 | -0.01 |
